“Also recorded” adds a separate entry of the source. Values belong to the compound of their own block, whether it stands above or below them.
How the values were obtained:
[1] = tested on: Arabidopsis thaliana Col-0 ecotype seeds; test: Seed germination, Col-0 ecotype; assay type: in vivo
Protocol: Take the compounds 0428 and 0224 of the present invention as examples. The seeds of Arabidopsis thaliana Col-0 ecotype and PYL receptor triple mutant (pyr1;pyl1;pyl4) were sterilized with NaClO and placed at 4° C. for 3 days of the vernalization, and then sown in ½ MS solid medium containing 1 μM (+)-ABA/0224 compound or 0.05% DMSO (control) or in ½ MS solid medium containing 2 μM (+)-ABA/compound 0428 of the present invention or 0.05% DMSO (control). Two lines of plant were sown simultaneously on each medium of 6 cm diameter, with 15-20 seeds sown for each line and 4 replicates for each compound. Culture medium was placed at 22° C. with long-day culture. The seeds germinated on a solid medium containing 1 μM (+)-ABA/0224 compound were photographed 6 days after sowing, and seeds germinated on solid medium containing 2 μM (+)-ABA/0428 compound were photographed 9 days after sowing.

[2] = tested on: soybean GmPYL6 + Arabidopsis AtHAB1; test: AlphaScreen assay: promotion of the interaction of soybean GmPYL6 with Arabidopsis HAB1; assay type: binding, soybean (GmPYL6); Arabidopsis thaliana (HAB1); details: FIG. 13a; 6×His-SUMO-tagged soybean GmPYL6, Biotin-tagged Arabidopsis HAB1 (aa 172-511), 100 nM each; pH 7.4; 1.5 h room temperature
Protocol: After incubating for 1.5 hours at room temperature in the dark, it was placed into an Envision Plate Reader (available from Perkin Elmer) under the programmed AlphaScreen procedure for readings.

wheat [3] = test: Soil drought experiment, wheat; assay type: in vivo; details: 100 μM sprayed once every 3 days; 6 days of drought; FIG. 17
Protocol: Soybean, cotton and wheat for leaf transpiration experiments were used simultaneously for soil drought experiments, each pot was filled with the same weight of soil to reduce experimental error. All the soybean plants were subjected to a long-day culture at 26° C. 14 days after sowing, watering was stopped and the plants with the consistent growth condition were selected for drought treatment. At the start of the drought, a solution containing 0.1% Tween-20 and 20 μM (+)-ABA/0224/0304 or 0.1% Tween-20 and 0.05% DMSO (control) was sprayed onto the leaf surface once with a spray amount of 4 ml solution/pot. Meanwhile, the position of the pot was changed and re-watered 6 days after the drought, and the photos were taken 1 day after re-watering. The drought experiment of cotton was similar to that of soybeans, watering was stopped 25 days after sowing, the plants with the consistent growth condition were selected for drought treatment. At the start of the drought, a solution containing 0.1% Tween-20 and 20 μM (+)-ABA/0224 or 0.1% Tween-20 and 0.05% DMSO (control) was sprayed onto the leaf surface once with a spray amount of 4 ml solution/pot, and then sprayed once every 3 days. Meanwhile, the position of the pot was changed and re-watered 6 days after the drought, and the photos were taken before re-watering and 1 day after re-watering. […]

wheat [4] = test: Leaf transpiration experiment, wheat; assay type: in vivo; details: 100 μM spray 18 days after sowing, one day after spraying; FIG. 16
Protocol: ABA synthesis mutant aba2-1 was used in Arabidopsis leaf transpiration experiment. […] Therefore, this mutant is used to exclude the effect of endogenous ABA on the transpiration experiment. The plants were sprayed with a solution containing 0.05% tween-20 and corresponding concentrations of (+)-ABA/0224/0304/0706/0715/0428 or 0.05% Tween-20 and 0.05% DMSO (control) after three weeks of continuous watering with an amount of 1.2 ml/pot. Leaf transpiration experiments of soybeans were conducted at 26° C. with long-day lighting and soybeans were sprayed with a solution containing 0.1% tween-20 and 20 μM (+)-ABA/0224/0304 compound or 0.1% Tween-20 and 0.05% DMSO (control) 14 days after sowing with an amount of 4 ml/pot; the leaf transpiration experiments of cottons were sprayed with a solution containing 0.1% tween-20 and 20 μM (+)-ABA/0224 compound or 0.1% Tween-20 and 0.05% DMSO, respectively, 25 days after sowing with an amount of 4 ml/pot; the leaf transpiration experiments of wheats were sprayed with a solution containing 0.1% tween-20 and 100 μM (+)-ABA/0224 compound or 0.1% Tween-20 and 0.05% DMSO (control) 18 days after sowing with an amount of 6 ml/pot. […]
In this experiment, the temperature change of leaf surface was observed and recorded by an infrared camera, thus reflecting the strength of plant transpiration. […]

- EC50 [2]: 6.28 nM
Structure (SMILES): CCCN1C(=O)OCc2cc(NS(=O)(=O)Cc3c(F)c(F)c(C)c(F)c3F)ccc21 [Compound 0428]
- inhibition of seed germination of Col-0 ([1]; 2 μM in 1/2 MS solid medium, 9 days after sowing, FIG. 15): can inhibit the seed germination of the Col-0; also recorded: could inhibit the seed germination of Col-0 ecotype

Structure (SMILES): CC1=CC(=O)CC(C)(C)[C@@]1(O)/C=C/C(C)=C\C(=O)O [ABA, Abscisic Acid, reference compound]
- growth after drought (wheat [3]): significantly better than that in the control group (DMSO); also recorded: remained upright
- EC50 [2]: 88.4 nM
- leaf temperature versus DMSO control (leaf transpiration) (wheat [4]): still significant higher than that of plants in DMSO-sprayed control group

Structure (SMILES): CCCN1C(=O)OC(C)c2cc(NS(=O)(=O)Cc3c(F)c(F)c(C)c(F)c3F)ccc21 (centres unmarked) [Compound 0224]
- growth after drought (wheat [3]): significantly better than that in the control group (DMSO); also recorded: remained upright
- inhibition of seed germination of Col-0 ([1]; 1 μM in 1/2 MS solid medium, 6 days after sowing, FIG. 3): can inhibit the seed germination of Col-0; also recorded: could inhibit the seed germination of Col-0 ecotype
- leaf temperature versus DMSO control (leaf transpiration) (wheat [4]): significantly reduce the transpiration rate of the wheat leaf; also recorded: still significant higher than that of plants in DMSO-sprayed control group
